Test results: patent US9796958B2, “Bacterial growth enhancer” (Plant Bioscience Limited, priority 2005, dated 2017)

What was measured:
Format in all cases: cell-based
E. coli = details: 55Fe-complexed human lactoferrin, tannic acid 50 μg/ml, other compounds 100 μM, BF 2% v/v
Description: (§1) L. casei and E. coli were added at around 5×10^6 CFU/ml to triplicate 1 ml serum-SAPI medium containing the additions shown in Table 2, and 2×10^5 cpm/ml of ^55Fe-complexed human lactoferrin. Tannic acid was used at 50 μg/ml, the other compounds were all used at 100 μM, final concentration; BF was used at 2% v/v. Cultures were incubated as described in the legend to FIG. 2, and growth enumerated on MRS agar (L. casei) or Luria agar (E. coli). ^55Fe incorporation was determined by scintillation counting of triplicate washed bacteria cultures.

L. casei = test: Delivery of lactoferrin-complexed 55Fe to bacteria in serum-SAPI; details: 55Fe-complexed human lactoferrin, tannic acid 50 μg/ml, other compounds 100 μM, BF 2% v/v
Description: as §1

LAB = LAB growth response to catecholamines in serum-based media; details: serum-based media only

Row | Compound | 55Fe incorporation/ml of culture (E. coli) | 55Fe incorporation/ml of culture (L. casei) | Increase in LAB growth (LAB)
1 | O=C(O)/C=C/c1ccc(O)c(O)c1 [Caffeic acid] | 11385 | 29 | –
2 | O=C(/C=C/c1ccc(O)c(O)c1)O[C@@H]1C[C@](O)(C(=O)O)C[C@@H](O)[C@H]1O [Chlorogenic acid] | 7374 | 28 | –
3 | NCCc1ccc(O)c(O)c1 [Dopamine] | 6815 | 48 | around 2 log-fold
4 | NC[C@H](O)c1ccc(O)c(O)c1 [Noradrenaline] | 8542 | 29 | around 2 log-fold
5 | O=C(OC[C@H]1O[C@@H](OC(=O)c2cc(O)c(O)c(OC(=O)c3cc(O)c(O)c(O)c3)c2)[C@H](OC(=O)c2cc(O)c(O)c(OC(=O)c3cc(O)c(O)c(O)c3)c2)[C@@H](OC(=O)c2cc(O)c(O)c(OC(=O)c3cc(O)c(O)c(O)c3)c2)[C@@H]1OC(=O)c1cc(O)c(O)c(OC(=O)c2cc(O)c(O)c(O)c2)c1)c1cc(O)c(O)c(OC(=O)c2cc(O)c(O)c(O)c2)c1 [Tannic acid] | 13952 | 28 | –
6 | Catechin | 3931 | 57 | –
